Laboratory results from patent publication US9796741B2 (Achillion Pharmaceuticals, Inc., priority 2014, dated 2017).
Like-named read-outs stand apart in the source and are kept apart here.

Target: Human factor D (Homo sapiens (Human), UniProt P00746)
Experiment: Human Factor D Assay
Format: biochemical
Procedure: Human factor D (purified from human serum, Complement Technology, Inc.) at 80 nM final concentration is incubated with test compound at various concentrations for 5 minutes at room temperature in 50 mM Tris, 1M NaCl, pH 7.5. A synthetic substrate Z-L-Lys-SBzl and DTNB (Ellman's reagent) are added to final concentrations of 100 μM each. The increase in color is recorded at OD405 nm in a microplate in kinetic mode over 30 minutes with 30 second time points in a spectrofluorimeter. IC50 values are calculated by non-linear regression from the percentage of inhibition of complement factor D activity as a function of test compound concentration.

[1] = human factor D 80 nM, substrate Z-L-Lys-SBzl, DTNB

Human factor D, sequence (P00746 26-253): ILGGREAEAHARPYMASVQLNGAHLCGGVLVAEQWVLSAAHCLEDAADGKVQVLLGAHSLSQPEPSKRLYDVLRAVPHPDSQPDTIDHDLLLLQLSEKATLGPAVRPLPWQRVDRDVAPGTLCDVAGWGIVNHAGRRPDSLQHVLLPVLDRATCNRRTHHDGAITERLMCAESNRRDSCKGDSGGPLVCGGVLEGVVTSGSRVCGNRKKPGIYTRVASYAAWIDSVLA

Compound	IC50 [1] [µM]	IC50 [µM]
CC(=O)c1cn(CC(=O)N2C[C@H](F)C[C@H]2C(=O)NCc2cc(F)cc(Cl)c2)c2ccc(-c3ccnnc3)cc12 [Compound 46, (2S,4R)-1-(2-(3-acetyl-5-(pyridazin-4-yl)-1H-indol-1-yl)acetyl)-N-(3-chloro-5-fluorobenzyl)-4-fluoropyrrolidine-2-carboxamide]	< 1	–
CC(=O)c1cn(CC(=O)N2C[C@H](F)C[C@H]2C(=O)Nc2cccc(Cl)c2C(F)(F)F)c2ccc(-c3ccnnc3)cc12 [Compound 126, (2S,4R)-1-(2-(3-acetyl-5-(pyridazin-4-yl)-1H-indol-1-yl)acetyl)-N-(3-chloro-2-(trifluoromethyl)phenyl)-4-fluoropyrrolidine-2-carboxamide]	> 10	–
CC(=O)c1cn(CC(=O)N2C[C@H](F)C[C@H]2C(=O)Nc2cncc(Cl)c2)c2ccc(-c3ccnnc3)cc12 [Compound 66, (2S,4R)-1-(2-(3-acetyl-5-(pyridazin-4-yl)-1H-indol-1-yl)acetyl)-N-(5-chloropyridin-3-yl)-4-fluoropyrrolidine-2-carboxamide]	< 1	–
Cc1ccnn1-c1ccccc1NC(=O)[C@@H]1C[C@@H](F)CN1C(=O)Cn1nc(C(N)=O)c2cc(-c3ccnnc3)ccc21 [Compound 71, 1-(2-((2S,4R)-4-fluoro-2-(2-(5-methyl-1H-pyrazol-1-yl)phenylcarbamoyl)pyrrolidin-1-yl)-2-oxoethyl)-5-(pyridazin-4-yl)-1H-indazole-3-carboxamide]	> 10	–
NC(=O)c1nn(CC(=O)N2[C@@H]3C[C@@H]3C[C@H]2C(=O)Nc2cccc(Br)n2)c2ccc(-c3cncnc3)cc12 [Compound 4]	< 1	–
CC(=O)c1cn(CC(=O)N2C[C@H](F)C[C@H]2C(=O)NC2CCCN(c3cc(C)ccc3F)C2=O)c2ccc(-c3ccnnc3)cc12 (stereo partly drawn) [Compound 125, (2S,4R)-1-(2-(3-acetyl-5-(pyridazin-4-yl)-1H-indol-1-yl)acetyl)-4-fluoro-N-(1-(2-fluoro-5-methylphenyl)-2-oxopiperidin-3-yl)pyrrolidine-2-carboxamide]	–	1 to 10
NC(=O)c1nn(CC(=O)N2C[C@H](F)C[C@H]2C(=O)Nc2noc3cc(C(F)(F)F)ccc23)c2ccc(-c3ccnnc3)cc12 [Compound 112, 1-(2-((2S,4R)-4-fluoro-2-(6-(trifluoromethyl)benzo[d]isoxazol-3-ylcarbamoyl)pyrrolidin-1-yl)-2-oxoethyl)-5-(pyridazin-4-yl)-1H-indazole-3-carboxamide]	> 10	–
NC(=O)c1nn(CC(=O)N2C[C@H](F)C[C@H]2C(=O)Nc2cccc(OCc3ccccc3)n2)c2ccc(-c3ccnnc3)cc12 [Compound 73, 1-(2-((2S,4R)-2-(6-(benzyloxy)pyridin-2-ylcarbamoyl)-4-fluoropyrrolidin-1-yl)-2-oxoethyl)-5-(pyridazin-4-yl)-1H-indazole-3-carboxamide]	> 10	–
NC(=O)c1nn(CC(=O)N2[C@@H]3C[C@@H]3C[C@H]2C(=O)Nc2cccc(Br)n2)c2ccc(-c3cnc(N4CCCC4)nc3)cc12 [Compound 11]	< 1	–
CC(=O)c1cn(CC(=O)N2C[C@H](F)C[C@H]2C(=O)Nc2cccc(-c3ccccc3Cl)c2F)c2ccc(N3CCN(S(C)(=O)=O)CC3)cc12 [Compound 33, (2S,4R)-1-(2-(3-acetyl-5-(4-(methylsulfonyl)piperazin-1-yl)-1H-indol-1-yl)acetyl)-N-(2′-chloro-2-fluorobiphenyl-3-yl)-4-fluoropyrrolidine-2-carboxamide]	< 1	–
Cn1ccc(N2CCC(NC(=O)[C@@H]3C[C@@H](F)CN3C(=O)Cn3nc(C(N)=O)c4cc(-c5ccnnc5)ccc43)C2=O)n1 (stereo partly drawn) [Compound 155, 1-(2-((2S,4R)-4-fluoro-2-(1-(1-methyl-1H-pyrazol-3-yl)-2-oxopyrrolidin-3-ylcarbamoyl)pyrrolidin-1-yl)-2-oxoethyl)-5-(pyridazin-4-yl)-1H-indazole-3-carboxamide]	> 10	–
CC(=O)c1cn(CC(=O)N2C[C@H](F)C[C@H]2C(=O)Nc2cccc(-c3ccccc3Cl)c2F)c2ccc(-c3cnc(N4CCCC4)nc3)cc12 [Compound 26, (2S,4R)-1-(2-(3-acetyl-5-(2-(pyrrolidin-1-yl)pyrimidin-5-yl)-1H-indol-1-yl)acetyl)-N-(2′-chloro-2-fluorobiphenyl-3-yl)-4-fluoropyrrolidine-2-carboxamide]	< 1	–
NC(=O)c1nn(CC(=O)N2C[C@H](F)C[C@H]2C(=O)Nc2cccc(Cl)c2C(F)(F)F)c2ccc(-c3ccnnc3)cc12 [Compound 93, 1-(2-((2S,4R)-2-(3-chloro-2-(trifluoromethyl)phenylcarbamoyl)-4-fluoropyrrolidin-1-yl)-2-oxoethyl)-5-(pyridazin-4-yl)-1H-indazole-3-carboxamide]	> 10	–
NC(=O)c1nn(CC(=O)N2C[C@H](F)C[C@H]2C(=O)Nc2cccc3c2CN(c2ccccn2)C3)c2ccc(-c3ccnnc3)cc12 [Compound 104, 1-(2-((2S,4R)-4-fluoro-2-(2-(pyridin-2-yl)isoindolin-4-ylcarbamoyl)pyrrolidin-1-yl)-2-oxoethyl)-5-(pyridazin-4-yl)-1H-indazole-3-carboxamide]	> 10	–
CC(=O)c1cn(CC(=O)N2C[C@H](F)C[C@H]2C(=O)Nc2cc(C)nc3nc(C(F)(F)F)nn23)c2ccc(-c3ccnnc3)cc12 [Compound 97, (2S,4R)-1-(2-(3-acetyl-5-(pyridazin-4-yl)-1H-indol-1-yl)acetyl)-4-fluoro-N-(5-methyl-2-(trifluoromethyl)-[1,2,4]triazolo[1,5-a]pyrimidin-7-yl)pyrrolidine-2-carboxamide]	> 10	–
CC(=O)c1cn(CC(=O)N2C[C@H](F)C[C@H]2C(=O)Nc2cccc(-c3ccccc3Cl)c2F)c2ccc(-c3cnc(C)nc3)cc12 [Compound 102, (2S,4R)-1-(2-(3-acetyl-5-(2-methylpyrimidin-5-yl)-1H-indol-1-yl)acetyl)-N-(2′-chloro-2-fluorobiphenyl-3-yl)-4-fluoropyrrolidine-2-carboxamide]	< 1	–
CC(=O)c1cn(CC(=O)N2C[C@H](F)C[C@H]2C(=O)Nc2nc(-c3cccc(Cl)c3)ns2)c2ccc(-c3ccnnc3)cc12 [Compound 147, (2S,4R)-1-(2-(3-acetyl-5-(pyridazin-4-yl)-1H-indol-1-yl)acetyl)-N-(3-(3-chlorophenyl)-1,2,4-thiadiazol-5-yl)-4-fluoropyrrolidine-2-carboxamide]	> 10	–
COc1cc(C)cc2c1OCCC2NC(=O)[C@@H]1C[C@@H](F)CN1C(=O)Cn1nc(C(N)=O)c2cc(-c3ccnnc3)ccc21 (stereo partly drawn) [Compound 122, 1-(2-((2S,4R)-4-fluoro-2-(8-methoxy-6-methylchroman-4-ylcarbamoyl)pyrrolidin-1-yl)-2-oxoethyl)-5-(pyridazin-4-yl)-1H-indazole-3-carboxamide]	> 10	–
NC(=O)c1nn(CC(=O)N2C[C@H](F)C[C@H]2C(=O)N[C@H]2CCCC[C@@H]2OCc2ccccc2)c2ccc(-c3ccnnc3)cc12 [Compound 78]	> 10	–
CC(=O)c1cn(CC(=O)N2C[C@H](F)C[C@H]2C(=O)Nc2cccc(Br)n2)c2ccc(-c3cncnc3)cc12 [Compound 14, (2S,4R)-1-(2-(3-acetyl-5-(pyrimidin-5-yl)-1H-indol-1-yl)acetyl)-N-(6-bromopyridin-2-yl)-4-fluoropyrrolidine-2-carboxamide]	< 1	–
CC(=O)Nc1ncc(-c2ccc3c(c2)c(C(C)=O)cn3CC(=O)N2C[C@H](F)C[C@H]2C(=O)Nc2cccc(Br)n2)cn1 [Compound 118, (2S,4R)-1-(2-(5-(2-acetamidopyrimidin-5-yl)-3-acetyl-1H-indol-1-yl)acetyl)-N-(6-bromopyridin-2-yl)-4-fluoropyrrolidine-2-carboxamide]	< 1	–
CC(=O)c1cn(CC(=O)N2C[C@H](F)C[C@H]2C(=O)Nc2cccc(Cl)n2)c2ccc(-c3cnc(C)nc3)cc12 [Compound 137, (2S,4R)-1-(2-(3-acetyl-5-(2-methylpyrimidin-5-yl)-1H-indol-1-yl)acetyl)-N-(6-chloropyridin-2-yl)-4-fluoropyrrolidine-2-carboxamide]	< 1	–
NC(=O)c1nn(CC(=O)N2C[C@H](F)C[C@H]2C(=O)Nc2cccnc2)c2ccc(-c3ccnnc3)cc12 [Compound 47, 1-(2-((2S,4R)-4-fluoro-2-(pyridin-3-ylcarbamoyl)pyrrolidin-1-yl)-2-oxoethyl)-5-(pyridazin-4-yl)-1H-indazole-3-carboxamide]	> 10	–
Cn1cnnc1-c1ccccc1NC(=O)[C@@H]1C[C@@H](F)CN1C(=O)Cn1nc(C(N)=O)c2cc(-c3ccnnc3)ccc21 [Compound 98, 1-(2-((2S,4R)-4-fluoro-2-(2-(4-methyl-4H-1,2,4-triazol-3-yl)phenylcarbamoyl)pyrrolidin-1-yl)-2-oxoethyl)-5-(pyridazin-4-yl)-1H-indazole-3-carboxamide]	> 10	–
COc1ncc(-c2ccc3c(c2)c(C(C)=O)cn3CC(=O)N2C[C@H](F)C[C@H]2C(=O)Nc2cccc(Br)n2)cn1 [Compound 21, (2S,4R)-1-(2-(3-acetyl-5-(2-methoxypyrimidin-5-yl)-1H-indol-1-yl)acetyl)-N-(6-bromopyridin-2-yl)-4-fluoropyrrolidine-2-carboxamide]	< 1	–
CC(=O)c1cn(CC(=O)N2C[C@H](F)C[C@H]2C(=O)Nc2cncc(Br)c2)c2ccc(-c3ccnnc3)cc12 [Compound 68, (2S,4R)-1-(2-(3-acetyl-5-(pyridazin-4-yl)-1H-indol-1-yl)acetyl)-N-(5-bromopyridin-3-yl)-4-fluoropyrrolidine-2-carboxamide]	< 1	–
NC(=O)c1nn(CC(=O)N2C[C@H](F)C[C@H]2C(=O)NCc2cccc(Cl)c2F)c2cnc(-c3cncnc3)cc12 [Compound 18, 1-(2-((2S,4R)-2-(3-chloro-2-fluorobenzylcarbamoyl)-4-fluoropyrrolidin-1-yl)-2-oxoethyl)-5-(pyrimidin-5-yl)-1H-pyrazolo[3,4-c]pyridine-3-carboxamide]	< 1	–
